# B1: G-CSF: granulocyte colony stimulating factor (G-CSF) (protein, UniProt P09919 31-207, looked up)
# Granulocyte …: TPLGPASSLPQSFLLKCLEQVRKIQGDGAALQEKLVSECATYKLCHPEELVLLGHSLGIPWAPLSSCPSQALQLAGCLSQLHSGLFLYQGLLQALEGISPELGPTLDTLQLDVADFATTIWQQMEELGMAPALQPTQGAMPAFASAFQRRAGGVLVASHLQSFLEVSYRVLRHLAQP
# Experiments:
# AML cells = assay: Mitogenic response to VEGF in AML cells; type: cell-based
# Source text: (§1) The pharmacological effects of 3-(3,4-dimethoxy-phenyl)-3-(1-oxo-1,3-dihydro-isoindol-2-yl)-propionamide derive from its action as an inhibitor of cellular response to receptor-initiated trophic signals (e.g., IGF-1, VEGF, cyclooxygenase-2), and other activities.
# [1] = test system: MDS bone marrow progenitor; assay: MDS vs normal bone marrow progenitor formation in pre-clinical models; type: cell-based
# Source text: as §1
# [2] = test system: death-receptor initiated programmed cell death; assay: In vitro pharmacology: death-receptor initiated programmed cell death; type: cell-based
# Source text: as §1
# [3] = test system: production of various cytokines; assay: In vitro studies of pharmacological activity profile and cytokine production; type: cell-based, human
# Procedure: The pharmacological properties of 3-(3,4-dimethoxy-phenyl)-3-(1-oxo-1,3-dihydro-isoindol-2-yl)-propionamide, including activity comparisons with thalidomide, are characterized in in vitro studies. Studies examine the effects of 3-(3,4-dimethoxy-phenyl)-3-(1-oxo-1,3-dihydro-isoindol-2-yl)-propionamide on the production of various cytokines. In addition, a safety pharmacology study of -(3,4-dimethoxy-phenyl)-3-(1-oxo-1,3-dihydro-isoindol-2-yl)-propionamide is conducted in dogs and the effects of the compound on ECG parameters are examined further as part of three repeat-dose toxicity studies in primates.
# Inhibition of TNF-α production following LPS-stimulation of human PBMC and human whole blood by 3-(3,4-dimethoxy-phenyl)-3-(1-oxo-1,3-dihydro-isoindol-2-yl)-propionamide is investigated in vitro (Muller et al., Bioorg. Med. Chem. Lett. 9:1625-1630, 1999). The IC50's of 3-(3,4-dimethoxy-phenyl)-3-(1-oxo-1,3-dihydro-isoindol-2-yl)-propionamide for inhibiting production of TNF-α following LPS-stimulation of PBMC and human whole blood is measured.
# as §1
# [4] = test system: adhesion molecules and apoptosis inhibitory proteins (e.g., cFLIP, cIAP); assay: In vitro pharmacology: adhesion molecules and apoptosis inhibitory proteins; type: cell-based
# Source text: as §1
# angiogenic response = assay: In vitro pharmacology: angiogenic response; type: cell-based
# Source text: as §1
# MDS patients = conditions: cited from earlier work
molecule,measurement,setting,value
"COc1ccc(C(CC(N)=O)N2Cc3ccccc3C2=O)cc1OC (stereo not drawn) [3-(3,4-dimethoxy-phenyl)-3-(1-oxo-1,3-dihydro-isoindol-2-yl)-propionamide]",mitogenic response to VEGF,AML cells,abrogates mitogenic response to VEGF
same,ligand-induced Akt-phosphorylation,AML cells; VEGF,extinguishing ligant-induced Akt-phosphorylation
same,MDS vs normal bone marrow progenitor formation,[1],selectively suppresses MDS vs normal bone marrow progenitor formation
same,sensitivity to death-receptor initiated programmed cell death,[2],promotes sensitivity to death-receptor initiated programmed cell death
same,generation of inflammatory cytokines,[3],suppresses the generation of inflammatory cytokines
same,"adhesion molecules and apoptosis inhibitory proteins (e.g., cFLIP, cIAP)",[4],down-regulates adhesion molecules and apoptosis inhibitory proteins
same,angiogenic response,angiogenic response,suppresses angiogenic response
"recombinant human EPO: erythropoietin (EPO), hematopoietic growth factor",patients with sustained improvement in hemoglobin or decrease in transfusion requirement,MDS patients,less than 25%
recombinant human GM-CSF: granulocyte macrophage colony stimulating factor (GM-CSF),granulocytopoiesis in treated patients,MDS patients,can restore granulocytopoiesis
same,improvement in hemoglobin or platelet counts,MDS patients,little or no improvement
B1,granulocytopoiesis in treated patients,MDS patients,can restore granulocytopoiesis
same,improvement in hemoglobin or platelet counts,MDS patients,little or no improvement

# Reference: patent publication US20080213213A1, “Method For the Treatment of Myelodysplastic Syndromes Using (+)-2-[1-(3-Ethoxy-4-Methoxyphenyl)-2-Methylsulfonylethyl]-4-Acetylaminoisoindoline-1,3-Dione” (priority 2004, published 2008)
